Legend:
[1] = system: A549; assay: Antiproliferative activity against VEGF-stimulated human A549 cells after 48 hrs by CCK8 assay; format: functional, cell-based; conditions: A549, 48 h
[2] = Selectivity ratio of IC50 for VEGF-stimulated human HepG2 cells to IC50 for VEGF-stimulated human A549 cells; format: functional
[3] = system: HepG2; assay: Antiproliferative activity against VEGF-stimulated human HepG2 cells after 48 hrs by CCK8 assay; format: functional, cell-based; conditions: HepG2, 48 h
[4] = target: Vascular endothelial growth factor receptor 2 (Homo sapiens, UniProt P35968); assay: biochemical; format: cell-based, Sf9
Chain of Vascular endothelial growth factor receptor 2 (P35968 whole entry): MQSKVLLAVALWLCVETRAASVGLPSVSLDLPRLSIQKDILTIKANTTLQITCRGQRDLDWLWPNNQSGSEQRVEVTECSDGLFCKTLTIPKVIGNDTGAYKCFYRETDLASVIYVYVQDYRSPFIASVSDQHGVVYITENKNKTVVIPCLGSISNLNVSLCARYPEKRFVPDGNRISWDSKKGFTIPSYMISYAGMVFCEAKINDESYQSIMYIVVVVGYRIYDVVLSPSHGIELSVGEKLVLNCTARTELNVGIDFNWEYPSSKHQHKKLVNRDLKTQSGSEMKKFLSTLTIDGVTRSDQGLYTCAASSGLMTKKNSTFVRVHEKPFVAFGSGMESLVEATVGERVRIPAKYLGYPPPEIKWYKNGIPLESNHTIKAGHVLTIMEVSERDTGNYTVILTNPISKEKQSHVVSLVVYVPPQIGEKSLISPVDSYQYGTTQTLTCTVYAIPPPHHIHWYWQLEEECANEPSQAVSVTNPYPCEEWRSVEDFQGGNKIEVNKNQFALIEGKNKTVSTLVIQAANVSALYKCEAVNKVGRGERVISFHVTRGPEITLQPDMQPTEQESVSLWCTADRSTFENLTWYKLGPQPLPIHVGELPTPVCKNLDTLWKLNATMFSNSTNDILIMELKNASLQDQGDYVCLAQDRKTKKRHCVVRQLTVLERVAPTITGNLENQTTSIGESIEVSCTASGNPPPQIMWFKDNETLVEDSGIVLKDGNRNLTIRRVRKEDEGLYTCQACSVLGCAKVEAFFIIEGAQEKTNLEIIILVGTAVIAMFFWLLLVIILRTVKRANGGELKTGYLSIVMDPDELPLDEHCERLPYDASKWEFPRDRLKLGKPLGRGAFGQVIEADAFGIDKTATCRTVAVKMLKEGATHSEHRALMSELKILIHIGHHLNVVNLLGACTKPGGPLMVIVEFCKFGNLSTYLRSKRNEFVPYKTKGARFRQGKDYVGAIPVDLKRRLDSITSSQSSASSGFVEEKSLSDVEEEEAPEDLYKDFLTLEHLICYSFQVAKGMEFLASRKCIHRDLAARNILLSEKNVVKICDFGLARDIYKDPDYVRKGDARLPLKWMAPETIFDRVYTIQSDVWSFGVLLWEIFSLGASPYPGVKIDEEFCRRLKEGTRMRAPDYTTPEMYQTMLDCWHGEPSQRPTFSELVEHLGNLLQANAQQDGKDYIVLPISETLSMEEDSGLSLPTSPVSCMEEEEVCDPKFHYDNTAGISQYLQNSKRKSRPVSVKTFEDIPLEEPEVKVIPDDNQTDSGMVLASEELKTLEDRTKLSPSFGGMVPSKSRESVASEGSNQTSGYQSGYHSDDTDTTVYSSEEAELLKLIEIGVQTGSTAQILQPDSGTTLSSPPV
Description: Inhibition of recombinant human N-terminal GST-tagged VEGFR2 (789 to end residues) expressed in baculovirus infected Sf9 insect cells using Poly (4:1 Glu,Tyr) as substrate measured after 1 hr by ADP-Glo kinase assay

| SMILES | IC50 [1] [µM] | IC50 [3] [µM] | IC50 [4] [µM] | Ratio IC50 [2] |
| --- | --- | --- | --- | --- |
| O=C(Nc1ccccc1)c1cc(Oc2ccc(/C=C/c3ccncc3)cc2)ccn1 | 79.7 | > 100 | – | >1.2 |
| CNC(=O)c1cc(Oc2ccc(NC(=O)Nc3ccc(Cl)c(C(F)(F)F)c3)cc2)ccn1 [SORAFENIB] | 19.3 | 29 | – | – |
| O=C(Nc1ccc(Cl)cc1)c1cc(Oc2ccc(/C=C/c3ccncc3)cc2)ccn1 | 62.1 | 56.2 | – | 0.9 |
| O=C(c1cc(Oc2ccc(/C=C/c3ccccn3)cc2)ccn1)N1CCCC1 | 15.6 | 27 | – | 1.7 |
| COc1ccc(NC(=O)c2cc(Oc3ccc(/C=C/c4ccncc4)cc3)ccn2)cc1 | 25.6 | > 100 | – | >3.9 |
| O=C(NC1CC1)c1cc(Oc2ccc(/C=C/c3ccncc3)cc2)ccn1 | 35.5 | 77.5 | – | 2.2 |
| CC(C)NC(=O)c1cc(Oc2ccc(/C=C/c3ccncc3)cc2)ccn1 | 20.6 | 33.7 | – | 1.6 |
| O=C(Nc1ccc(Cl)cc1)c1cc(Oc2ccc(/C=C/c3ccccn3)cc2)ccn1 | 16.2 | 31.3 | – | 1.9 |
| O=C(NCc1ccccc1)c1cc(Oc2ccc(/C=C/c3ccncc3)cc2)ccn1 | 17 | 28.9 | – | 1.7 |
| O=C(c1cc(Oc2ccc(/C=C/c3ccncc3)cc2)ccn1)N1CCCC1 | 18.6 | 41.6 | – | 2.2 |
| O=C(NCc1ccc(F)cc1)c1cc(Oc2ccc(/C=C/c3ccncc3)cc2)ccn1 | 18.2 | 37.2 | – | 2 |
| O=C(NC1CCCCC1)c1cc(Oc2ccc(/C=C/c3ccccn3)cc2)ccn1 | 12.5 | 20.6 | 0.53 | 1.6 |

Continued, in another order:

| IC50 [1] [µM] | IC50 [3] [µM] | IC50 [4] [µM] | SMILES | Ratio IC50 [2] |
| --- | --- | --- | --- | --- |
| 17.3 | 31 | – | O=C(NC1CC1)c1cc(Oc2ccc(/C=C/c3ccccn3)cc2)ccn1 | 1.8 |
| 19.1 | 30.2 | – | O=C(Nc1ccccc1)c1cc(Oc2ccc(/C=C/c3ccccn3)cc2)ccn1 | 1.6 |
| 21.4 | > 100 | – | CC(C)NC(=O)c1cc(Oc2ccc(/C=C/c3ccccn3)cc2)ccn1 | >4.7 |
| 17.4 | 21.6 | 0.87 | CNC(=O)c1cc(Oc2ccc(/C=C/c3ccccn3)cc2)ccn1 | 1.2 |
| 16.8 | 22.4 | 1.22 | O=C(NC1CCCCC1)c1cc(Oc2ccc(/C=C/c3ccncc3)cc2)ccn1 | 1.3 |
| 13.2 | 18.2 | 0.29 | CNC(=O)c1cc(Oc2ccc(/C=C/c3ccncc3)cc2)ccn1 | 1.4 |
| > 100 | 45.1 | – | O=C(NCc1ccc(F)cc1)c1cc(Oc2ccc(/C=C/c3ccccn3)cc2)ccn1 | <0.5 |
| 20 | 30 | – | COc1ccc(NC(=O)c2cc(Oc3ccc(/C=C/c4ccccn4)cc3)ccn2)cc1 | 1.5 |
| 18.8 | 27.9 | – | O=C(NCc1ccccc1)c1cc(Oc2ccc(/C=C/c3ccccn3)cc2)ccn1 | 1.5 |
| 19.3 | > 100 | – | COc1ccc(CNC(=O)c2cc(Oc3ccc(/C=C/c4ccncc4)cc3)ccn2)cc1 | >5.2 |
| 63.6 | 26 | – | COc1ccc(CNC(=O)c2cc(Oc3ccc(/C=C/c4ccccn4)cc3)ccn2)cc1 | 0.4 |
